Reference: US9981005B2, “Methods for increasing DISC1 in a subject with schizophrenia or bipolar disorder by an antagonist inhibiting DISC1 binding to FBXW7” (The University Court of the University of Glasgow, priority 2013, dated 2018)
“Also recorded” adds a separate entry of the source. Where a SMILES comes first, the peptide text is derived from it. Where no end group is shown, it is not given here. [ ]: non-standard residue; d: D form. The star is where a group is joined. pT = C[C@@H](OP(=O)(O)O)[C@H](N)C(=O)O; NMeE = CN[C@@H](CCC(=O)O)C(=O)O; pS = N[C@@H](COP(=O)(O)O)C(=O)O; NMeD = CN[C@@H](CC(=O)O)C(=O)O; Cbz = O=C(OCc1ccccc1)*

Experiments:
[1] = test system: DISC1 levels in HEK293 cells; test: MG132 treatment of HEK293 cells, Western blot for DISC1; format: cell-based, human; details: MG132 at various concentrations for 3 hours, FIG. 1
Method: The proteasome inhibitor MG132 (N-carbobenzoxyl-Leu-Leu-Leucinal) (Sigma) was dissolved in DMSO to make a stock of 10 mM and stored at −20° C. HEK293 cells were treated with MG132 at various concentrations for 3 hours. The cells were then lysed in 3T3 lysis buffer (20 mM Hepes (pH 7.4), 50 mM NaCl, 50 mM NaF, 10% (v/v) glycerol, 1% (w/v) Triton X-100, 10 mM EGTA, 30 mM sodium pyrophosphate supplemented with protease and phosphatase inhibitor cocktail (Roche)). Proteins were quantified and normalised for protein concentration followed by Western blot analysis for DISC1 and GAPDH.
(§1) Lysates were boiled in Laemmli buffer for 2 minutes prior to SDS-PAGE. Lysates were loaded on to a precast 4-12% bis-tris gel (˜10 μg/well). Gels were resolved at 150V (constant) for 90 mins. Proteins were transferred to nitrocellulose membrane at 30V for 1 hour. Membranes were blocked in 5% Milk in 1×TBS-tween20 for 1 hour at room temperature. Primary antibodies were diluted in 1% milk in 1×TBS-tween20 and incubated overnight at 4° C. […] Protein bands were visulised using the Licor Odyssey scanner and analysed using Odyssey software (version 1.2). DISC-1 protein levels were analysed by densitometry and normalised against those of the loading control (GAPDH).

Skp1-FBXW7 = molecular target: T1, Skp1-FBXW7 (Homo sapiens, UniProt Q969H0); test: Isothermal titration calorimetry (ITC); format: binding; details: ITC at 25° C.
T1 construct: human FBXW7 (residues 263-707); His6 (N, cleaved yes); made in house; host or cells: Escherichia coli
Method: Affinity of DISC1 analogue peptides (or other binding inhibitors) for FBXW7 may be determined using ITC.
Protein samples are typically dialysed against a solution containing 20 mM HEPES-Na (pH 7.4), 200 mM NaCl, and 2 mM β-mercaptoethanol before combining. Typically, the concentrations of Skp1-FBXW7 and DISC1 peptides used in the assay are 50 μM and 1 mM, respectively.
Titration is performed at 25° C. with a NANO ITC System (TA Instruments, New Castle, Del.) and data analysed using the TA Nano Analyze software. Dissociation constants and their standard deviations are typically derived from two to three independent measurements.

FBXW7 = FBXW7 (Homo sapiens, UniProt Q969H0); test: Peptides immobilised on membranes screened for the ability to bind FBXW7; format: binding
Source text: Peptides derived from DISC1 and containing the putative phospho-degron motif were immobilised on membranes and screened for the ability to bind FBXW7. […] (SEQ ID NO: 114).
The 7-mer peptide P-pT-P-P-G-pS-H (SEQ ID NO: 21) was used as the basis for further investigation. L- and D-forms of aspartic acid and glutamic acid (upper and lower case letters respectively) as well as N-methylated versions of each (designated “m”) were incorporated at positions 198 and 202.

[2] = test system: DISC1 expression in HEK293 cells; test: DISC1 expression in HEK293 cells treated with cell-permeable peptides, quantitative Western blotting; format: cell-based, human; details: for DISC1 up-regulation, time course: cell-permeable (N-terminal stearate) peptides at 100 μM, 0, 1, 2, 3 and 6 hours, FIG. 9
Method: Peptides modified at the N-terminal amino group with stearate moieties to render them cell permeable (Severn Biotech Ltd) were dissolved in sterile DMSO at a stock concentration of 100 mM.
HEK293 cells were seeded into 6 well plates and cultured until 70-80% confluent. Cell permeable peptides 139 and 142 were added at 100 μM. Cells were incubated at 37° C./5% C02. Cells were taken at 0, 1, 2, 3 and 6 hours post peptide addition. After treatment cells were washed briefly with ice cold PBS and lysed on ice using 3T3 lysis buffer (20 mM Hepes (pH 7.4), 50 mM NaCl, 50 mM NaF, 10% (v/v) glycerol, 1% (w/v) Triton X-100, 10 mM EGTA, 30 mM sodium pyrophosphate) containing protease and phosphatase inhibitors. Protein concentrations were assessed using Bradford assay. Cell lysates were separated by SDS-PAGE and levels of DISC1 expression determined by quantitative Western blotting using the Licor Odyssey imaging system. GAPDH was used as a control to confirm equal loading.
In a similar experiment, HEK293 were seeded into 6 well plates and cultured until 70-80% confluent. Cell-permeable peptides 139 and 142 were added over a concentration range: 10 μM, 30 μM, 50 μM, 100 μM in duplicate. Cells were incubated at 37° C./5% C02 for 3 hours. […] After treatment cells were washed briefly with ice cold PBS and lysed on ice as described above.
as §1

[3] = test system: FBXW7 substrates Notch-1, c-Myc, c-Jun and cyclinE; test: Expression levels of other FBXW7 substrates after peptide treatment, Western blot; format: cell-based, human; details: FIG. 11, specificity for the FBXW7-DISC1 interaction
Method: Lysates were boiled in Laemmli buffer for 2 minutes prior to SDS-PAGE. Lysates were loaded on to a precast 4-12% bis-tris gel (˜10 μg/well). Gels were resolved at 150V (constant) for 90 mins. Proteins were transferred to nitrocellulose membrane at 30V for 1 hour. Membranes were blocked in 5% Milk in 1×TBS-tween20 for 1 hour at room temperature. Primary antibodies were diluted in 1% milk in 1×TBS-tween20 and incubated overnight at 4° C. Membranes were washed three times with 1×TBS-tween20 and the appropriate secondary antibody (diluted using 1% milk in 1×TBS-tween20) was added for 45 mins at room temperature. Membranes were washed a further three times with 1×TBS-tween20 and once in 1×TBS. Protein bands were visulised using the Licor Odyssey scanner and analysed using Odyssey software (version 1.2). DISC-1 protein levels were analysed by densitometry and normalised against those of the loading control (GAPDH).

Chain of FBXW7 (Q969H0 whole entry): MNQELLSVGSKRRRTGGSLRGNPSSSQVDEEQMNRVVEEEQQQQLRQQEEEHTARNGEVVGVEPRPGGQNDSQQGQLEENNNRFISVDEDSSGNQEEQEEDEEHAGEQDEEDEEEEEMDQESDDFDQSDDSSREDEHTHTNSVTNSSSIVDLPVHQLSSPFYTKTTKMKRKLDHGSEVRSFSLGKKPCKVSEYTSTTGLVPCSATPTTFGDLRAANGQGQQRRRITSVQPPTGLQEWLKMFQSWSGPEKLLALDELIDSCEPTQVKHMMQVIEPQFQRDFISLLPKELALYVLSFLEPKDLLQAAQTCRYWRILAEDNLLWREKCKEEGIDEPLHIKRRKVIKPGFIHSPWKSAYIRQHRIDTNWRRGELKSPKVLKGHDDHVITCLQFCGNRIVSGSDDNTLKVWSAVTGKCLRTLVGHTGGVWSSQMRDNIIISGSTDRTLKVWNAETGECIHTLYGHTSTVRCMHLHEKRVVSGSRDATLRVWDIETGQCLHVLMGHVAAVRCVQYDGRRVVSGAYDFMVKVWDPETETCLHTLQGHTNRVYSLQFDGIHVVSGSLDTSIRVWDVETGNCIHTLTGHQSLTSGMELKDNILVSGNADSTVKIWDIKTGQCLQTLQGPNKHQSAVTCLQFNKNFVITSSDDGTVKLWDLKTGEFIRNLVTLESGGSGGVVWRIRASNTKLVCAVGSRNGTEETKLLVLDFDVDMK
T1 sequence (Q969H0 263-707): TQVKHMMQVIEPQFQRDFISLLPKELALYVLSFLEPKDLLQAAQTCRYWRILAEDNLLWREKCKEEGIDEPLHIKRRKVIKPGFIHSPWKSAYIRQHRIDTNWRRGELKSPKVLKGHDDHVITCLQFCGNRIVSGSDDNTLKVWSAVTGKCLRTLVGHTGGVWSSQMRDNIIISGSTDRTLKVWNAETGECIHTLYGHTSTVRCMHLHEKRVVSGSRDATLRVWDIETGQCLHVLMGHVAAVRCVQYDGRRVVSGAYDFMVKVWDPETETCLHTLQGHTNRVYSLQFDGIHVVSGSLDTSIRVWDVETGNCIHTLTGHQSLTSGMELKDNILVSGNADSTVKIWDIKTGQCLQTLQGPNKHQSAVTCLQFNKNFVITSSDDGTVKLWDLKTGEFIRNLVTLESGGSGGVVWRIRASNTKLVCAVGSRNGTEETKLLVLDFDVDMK

Compound | DISC1 levels [1] | Kd (Skp1-FBXW7) [nM] | binding to FBXW7 (FBXW7) | DISC1 up-regulation, time course [2] | effect on expression levels of the other FBXW7 substrates Notch-1, c-Myc, c-Jun and cyclinE [3] | DISC1 up-regulation, dose dependence ([2]; cell-permeable peptides at 10 μM, 30 μM, 50 μM, 100 μM, 3 hours, FIG. 10)
CC(C)C[C@@H](C=O)NC(=O)[C@H](CC(C)C)NC(=O)[C@H](CC(C)C)NC(=O)OCc1ccccc1 [MG132, N-carbobenzoxyl-Leu-Leu-Leucinal] (Cbz-Leu-Leu-Leu-aldehyde) | up-regulates DISC1 levels |  |  |  |  | 
CC(C)[C@H](N)C(=O)N1CCC[C@H]1C(=O)N1CCC[C@H]1C(=O)N[C@H](C(=O)N1CCC[C@H]1C(=O)N1CCC[C@H]1C(=O)NCC(=O)N[C@@H](COP(=O)(O)O)C(=O)N[C@@H](Cc1c[nH]cn1)C(=O)O)[C@@H](C)OP(=O)(O)O [VPPpTPPGpSH] (H-VPP[pT]PPG[pS]H-OH; N-terminus and C-terminus assumed) |  | ~1000 |  |  |  | 
G-mD-P-P-G-mE-H (G[NMeD]PPG[NMeE]H) [Peptide 142] |  |  | retain or have improved binding to FBXW7 | Up-Regulate DISC1 Expression | do not upregulate other FBXW7 substrates; also recorded: no effect | 
G-mE-P-P-G-mE-H (G[NMeE]PPG[NMeE]H) [Peptide 139] |  |  | retain or have improved binding to FBXW7 | Up-Regulate DISC1 Expression | do not upregulate other FBXW7 substrates; also recorded: no effect | dose-dependent
